{
  "source": "patent US20240201204A1",
  "about": "“Biomarker and Druggable Target of Neurodegeneration” (University Hospitals Cleveland Medical Center, priority 2020, published 2024)",
  "key": {"[1]": {"tested_on": "IL-1β", "experiment": "IL-1β expression in cerebral cortex after TBI (qPCR)", "assay_type": "in vivo, mouse", "settings": "25 mg/kg salsalate", "experimental": "Drug preparation and administration: CGP3466B (Sigma-Aldrich, SML1941) was dissolved in DMSO and then diluted in sterile saline. The final working stock was 0.0014 mg/ml for administering the 0.014 mg/kg dose. Intraperitoneal administration of CGP3466B was initiated 15 min or 24 h after injury, and tissues were harvested 6 h (for SNO-GAPDH, SNO-SIRT1 measurement) or 2 weeks (for ac-tau measurement) later, respectively. Salsalate (AdipoGen, AG-CR1-3574) was dissolved in DMSO and then diluted in sterile PBS. The final working stocks were as follows: 2.5 mg/ml (25 mg/kg dose), 1 mg/ml (10 mg/kg dose), 0.5 mg/ml (5 mg/kg dose). Daily intraperitoneal administration of salsalate was initiated 24 hr after injury and continued throughout behavioral testing. P7C3-A20 and FK866 (Sigma-Aldrich, F8557) were first dissolved in 1 vol of DMSO, followed by addition of 4 vol of Kolliphor and vigorously vortexing. The solution was then diluted with 30 vol of filtered 5% dextrose (pH 7.0). EX527 (Selleckchem, S1541) was dissolved in 1% DMSO+30% polyethylene glycol+1% Tween 80. Daily intraperitoneal administration of P7C3-A20 was initiated 24 hr after poly-traumatic brain injury. EX527 (10 mg/kg) was administer once a day and FK866 was treated twice per day, with the first injection given at the same time as P7C3-A20 (20 mg/kg) and the second injection given 6 h later (LoCoco et al., 2017 eLife). […]"}, "[2]": {"tested_on": "Alzheimer's disease", "experiment": "Pharmacoepidemiologic cohort analysis (MarketScan Medicare Supplemental database), incidence of AD", "assay_type": "in vivo, human", "description": "Because ac-tau has been generally reported in the brains of subjects with AD, we evaluated the relationship between salsalate or diflunisal use and incidence of clinically-diagnosed TBI or AD by analyzing 7.23 million U.S. commercially-insured individuals (MarketScan Medicare Supplemental database). We conducted two cohort analyses to evaluate the predicted association, based on individual level of longitudinal patient data and pharmacoepidemiologic methods, as previously established (Cheng et al., 2018). Thus, our two cohorts included: (1) salsalate vs. a matched aspirin population and (2) diflunisal vs. a matched aspirin population (Table 2). For each comparison, we estimated the un-stratified Kaplan-Meier curves and conducted propensity score (PS) stratified (n strata=10) log-rank tests and a Cox regression model after adjusting age, race, sex, and disease comorbidities (including diabetes, hypertension, and coronary artery disease) using a propensity score-matching method (Methods).\nStudy cohorts. The IBM® MarketScan® Medicare Supplemental Database is one of the first in the U.S. to profile the healthcare experience of retirees with Medicare supplemental insurance paid by employers. The MarketScan Medicare Supplemental Database provides detailed cost, use and outcomes data for healthcare services performed in both inpatient and outpatient settings. For most of the population, the medical claims are linked to outpatient prescription drug claims and person-level enrollment data through the use of unique patient or enrollee identifiers. […] This feature makes the database a robust tool for pharmacoeconomic and outcomes research and helps provide insight into the drug use and spending patterns of older Americans. In this study, the pharmacoepidemiology study utilized the MarketScan Medicare Claims database from 2012 to 2017. The dataset included individual-level diagnosis codes, procedure codes and pharmacy claim data for 7.23 million patients. Pharmacy prescriptions of salsalate, diflunisal, and aspirin were identified by using RxNorm and National Drug Code (NDC).\nOutcome measurement. For a subject, a drug episode is defined as from drug initiation to drug discontinuation. Specifically, drug initiation is defined as the first day of drug supply (i.e. 1st prescription date). Drug discontinuation is defined as the last day of drug supply (i.e. last prescription date+days of supply) and without drug supply for the next 60 days. In another word, gaps of less than 60-day of drug supply were allowed within a drug episode. The drug cohort included the first drug episode for each subject. For the final cohorts, demographic variables including age, race, sex and geographical location were collected. […]"}},
  "data": [
    {"smiles": "O=C(Oc1ccccc1C(=O)O)c1ccccc1O", "note": "[salsalate]", "values": [
      {"measurement": "TBI-induced increase of IL-1β in cerebral cortex", "setting": "[1]", "value": "this increase is not attenuated"},
      {"measurement": "incidence of AD, subgroup analysis", "setting": "[2]; excluding patients with type 2 diabetes, hypertension, or coronary artery disease, vs. aspirin", "value": "associated with decreased incidence of AD"},
      {"measurement": "hazard ratio [HR], AD", "setting": "[2]; vs. PS-matched aspirin cohort, Cox regression model, 6 years of follow-up", "value": 0.57}
    ]}
  ]
}
